Holding throughout (assay): Broth microdilution MIC/MBC
Background: Dilution methods test growth across graded concentrations, often in twofold steps.

One assay has as its system MRSA. Format: cell-based, methicillin-resistant S. aureus. The settings on record: Staphylococcus aureus, 24 h at 37° C. As to the method: (§1) Broth microdilution tests were performed according to NCCLS guidelines. Serial two-fold dilutions of each imidazolium salt (from an original working solution which had been 0.22 μm sterile filtered) in Mueller-Hinton Broth (MHB) (100 μl) were prepared in 96-well micro-titre plates over the range 0.0000625-1% w/v. The inoculum to be tested was prepared by adjusting the turbidity of an actively overnight growing broth culture in MHB to an optical density at 550 nm equivalent to 1×10^8 CFU/ml. The suspension was further diluted to provide a final inoculum density of 2×10^5 CFU/ml in MHB as verified by total viable count. The inoculum to be tested (100 μl, 2×10^5 CFU ml^−1) was added to each well of the microdilution trays which were incubated aerobically for 24 h at 37° C. Positive and negative growth controls were included in every assay (6 replicates). After determining the MICs, minimum bactericidal concentrations (MBCs) were determined by spreading 20 μl of suspension from wells showing no growth onto MHA plates, which were then incubated for 24 h and examined for 99.9% killing.

Assay [1] deals with S. epidermidis ATCC 12228. It counts as cell-based. The following applies: S. epidermidis ATCC 12228, 24 h at 37° C. As to the method:
as §1

The subject of a further assay is P. aeruginosa PA01. Format: cell-based. The settings on record: Pseudomonas aeruginosa, PA01, 24 h, P. aeruginosa PA01, 24 h at 37° C.; read-out: MIC. As to the method:
as §1

Another assay has as its system E. coli NCTC 8196. It counts as cell-based. The settings on record: E. coli NCTC 8196, 24 h at 37° C. How it is done: as §1
The next assay concerns P. mirabilis NCTC 12442. It counts as cell-based. The settings on record: P. mirabilis NCTC 12442, 24 h at 37° C. How it is done: as §1
The subject of the next assay is B. cereus. Format: cell-based. The settings on record: 24 h at 37° C. How it is done: as §1
The test system of a further assay is C. tropicalis NCTC 7393. Format: cell-based. The settings on record: C. tropicalis NCTC 7393, 24 h at 37° C. As to the method:
as §1

For the next assay, the system named is K. aerogenes NCTC 7427. It counts as cell-based. The following applies: K. aerogenes NCTC 7427, 24 h at 37° C. As to the method: as §1
The subject of assay [2] is S. epidermidis ATCC 35984. Format: cell-based. The settings on record: S. epidermidis ATCC 35984, 24 h at 37° C. As to the method:
as §1

The subject of the next assay is S. aureus ATCC 29213. It counts as cell-based. The settings on record: S. aureus ATCC 29213, 24 h at 37° C. How it is done:
as §1

In general, MIC refers to the smallest concentration in the dilution series that meets the test's criterion for growth inhibition. `CCCCCCCCCCCCCC[n+]1ccn(C)c1C` [IL1, 1,2-dimethyl-3-tetradecylimidazolium bromide, reference compound]: the MIC is 186 µM against MRSA; 213 µM in assay [1] (Staphylococcus epidermidis, ATCC12228); 743 µM in the assay on P. aeruginosa PA01; 46.5 µM in the assay with E. coli NCTC 8196 (Escherichia coli, NCTC8196); 372 µM against P. mirabilis NCTC 12442 (Proteus mirabilis, NCTC12442); 372 µM in the assay with B. cereus (Bacillus cereus).

For the compound `CCCCCCCC[n+]1ccn(C)c1.CCCCCCCC[n+]1ccn(C)c1.[Cl][Cu-2]([Cl])([Cl])[Cl]` [(1-alkyl-3-methylimidazolium)2CuCl4 8], the MIC is listed as 941.6 µM against C. tropicalis NCTC 7393; 470 µM in [1]; 470 µM in the assay with E. coli NCTC 8196; 941.6 µM with K. aerogenes NCTC 7427; 470 µM in [2]; 470 µM against S. aureus ATCC 29213. Besides, the results for the MIC in the assay on P. mirabilis NCTC 12442 and in the assay with B. cereus were 941.6 µM and 1883.21 µM, respectively.

Take `CCCCCCCCCCCCCCCCn1cc[n+](C)c1.CCCCCCCCCCCCCCCCn1cc[n+](C)c1.[Cl][Cu-2]([Cl])([Cl])[Cl]` [(1-alkyl-3-methylimidazolium)2CuCl4 16]: the MIC in the assay on C. tropicalis NCTC 7393 worked out at 44.81 µM; in assay [1] it was 44.81 µM; in the assay with E. coli NCTC 8196, 44.81 µM; with K. aerogenes NCTC 7427, 44.81 µM; in assay [2] it was 22.41 µM; against S. aureus ATCC 29213, 22.41 µM. Moreover, the MIC against P. mirabilis NCTC 12442 is 44.81 µM; against B. cereus, 89.63 µM.

For `CCCCCCCCCCCCCCCCn1cc[n+](C)c1.[Br][Ag-][Br]` [1-alkyl-3-methylimidazolium-AgBr2 16], the MIC in the assay on C. tropicalis NCTC 7393 is given as 34.44 µM; in [1], 3.61 µM; with E. coli NCTC 8196, 28.91 µM; against K. aerogenes NCTC 7427, 34.44 µM; in [2], 3.61 µM; in the assay on S. aureus ATCC 29213, 7.23 µM. Also, the MIC in the assay on P. mirabilis NCTC 12442 amounted to 34.44 µM; against B. cereus, 68.89 µM.

As for `CCCCCCCC[n+]1ccn(C)c1.[Br][Ag-][Br]` [1-alkyl-3-methylimidazolium-AgBr2 8], the MIC with C. tropicalis NCTC 7393 came to 168.5 µM; in assay [1], 68.35 µM; in the assay with E. coli NCTC 8196, 136.69 µM; against K. aerogenes NCTC 7427, 168.5 µM; in [2], 68.35 µM; in the assay on S. aureus ATCC 29213 it was 136.69 µM. Besides, the MIC with P. mirabilis NCTC 12442 and against B. cereus was 168.5 µM in each case.

Take `CCCCCCCCCCCCCCCCCCn1cc[n+](C)c1.CCCCCCCCCCCCCCCCCCn1cc[n+](C)c1.[Cl][Cu-2]([Cl])([Cl])[Cl]` [(1-alkyl-3-methylimidazolium)2CuCl4 18]: the MIC was 84.57 µM against C. tropicalis NCTC 7393; 131.98 µM in assay [1]; 131.98 µM against E. coli NCTC 8196; 338.29 µM with K. aerogenes NCTC 7427; 131.98 µM in assay [2]; 131.98 µM against S. aureus ATCC 29213. Moreover, the MIC in the assay on P. mirabilis NCTC 12442 is listed as 338.29 µM; with B. cereus, 169.15 µM.

For the compound `CCCCCCCCCCCCCC[N+](C)(C)CCO` [IL2, N,N-dimethyl-N-(2-hydroxyethyl)-N-tetradecylammonium bromide, reference compound], the MIC was 427 µM in the assay on P. aeruginosa PA01; 53.4 µM with E. coli NCTC 8196 (Escherichia coli, NCTC8196); 427 µM with P. mirabilis NCTC 12442 (Proteus mirabilis, NCTC12442); 13.3 µM with B. cereus (Bacillus cereus).

Turning to `CCCCCCCCCCCCCCCCCC[n+]1ccn(C)c1.[Br][Ag-][Br]` [1-alkyl-3-methylimidazolium-AgBr2 18], the MIC against C. tropicalis NCTC 7393 is on record as 65.87 µM; in assay [1] it was 13.91 µM; in the assay on E. coli NCTC 8196, 27.83 µM; in the assay with K. aerogenes NCTC 7427 it was 65.87 µM; in [2], 13.91 µM; against S. aureus ATCC 29213 it was 27.83 µM. In addition, the MIC against P. mirabilis NCTC 12442 and in the assay on B. cereus was 65.87 µM each time.

Regarding `CCCCCCCCCCn1cc[n+](C)c1.[Br][Ag-][Br]` [1-alkyl-3-methylimidazolium-AgBr2 10], the MIC is 79.78 µM in the assay on C. tropicalis NCTC 7393; 32.68 µM in assay [1]; 32.68 µM against E. coli NCTC 8196; 79.78 µM against K. aerogenes NCTC 7427; 32.68 µM in [2]; 32.68 µM in the assay on S. aureus ATCC 29213. The MIC in the assay with P. mirabilis NCTC 12442 and against B. cereus was 79.78 µM each time.

Take `CCCCCCCCCCCCCCn1cc[n+](C)c1.CCCCCCCCCCCCCCn1cc[n+](C)c1.[Cl][Cu-2]([Cl])([Cl])[Cl]` [(1-alkyl-3-methylimidazolium)2CuCl4 14]: the MIC in the assay on C. tropicalis NCTC 7393 is 20.01 µM; in assay [1] it was 20.01 µM; against E. coli NCTC 8196 it was 40.02 µM; in the assay with K. aerogenes NCTC 7427, 40.02 µM; in [2] it was 40.02 µM; in the assay on S. aureus ATCC 29213, 40.02 µM. Further, the MIC in the assay on P. mirabilis NCTC 12442 is listed as 20.01 µM; with B. cereus, 80.06 µM.

For `CCCCCCCCCCCC[n+]1ccn(C)c1.[Br][Ag-][Br]` [1-alkyl-3-methylimidazolium-AgBr2 12], the MIC against C. tropicalis NCTC 7393 is 75.85 µM; in assay [1], 31.32 µM; in the assay on E. coli NCTC 8196, 31.32 µM; in the assay with K. aerogenes NCTC 7427 it was 34.40 µM; in assay [2], 15.66 µM; against S. aureus ATCC 29213, 15.66 µM. Besides, the MIC with P. mirabilis NCTC 12442 turned out to be 34.40 µM; against B. cereus it was 68.81 µM.

Take `CCCCCCCCCC[n+]1ccn(C)c1.CCCCCCCCCC[n+]1ccn(C)c1.[Cl][Cu-2]([Cl])([Cl])[Cl]` [(1-alkyl-3-methylimidazolium)2CuCl4 10]: the MIC with C. tropicalis NCTC 7393 was 218.3 µM; in [1] it was 101.74 µM; against E. coli NCTC 8196, 101.74 µM; with K. aerogenes NCTC 7427, 218.3 µM; in assay [2], 101.74 µM; against S. aureus ATCC 29213 it was 101.74 µM. Further, the MIC against P. mirabilis NCTC 12442 was found to be 218.3 µM; in the assay on B. cereus it was 1746.4 µM.

Consider `CCCCCCCCCCCCn1cc[n+](C)c1.CCCCCCCCCCCCn1cc[n+](C)c1.[Cl][Cu-2]([Cl])([Cl])[Cl]` [(1-alkyl-3-methylimidazolium)2CuCl4 12], for which the MIC (against C. tropicalis NCTC 7393; in [1]; in the assay on E. coli NCTC 8196; in the assay with K. aerogenes NCTC 7427; in [2]; with S. aureus ATCC 29213) was 50.88 µM each time. The MIC came to 50.88 µM with P. mirabilis NCTC 12442 and 407 µM in the assay on B. cereus.

With `CCCCCCCCCCCCCC[n+]1ccn(C)c1.[Br][Ag-][Br]` [1-alkyl-3-methylimidazolium-AgBr2 14], the MIC with C. tropicalis NCTC 7393 is recorded as 36.1 µM; in [1] it was 15.03 µM; in the assay on E. coli NCTC 8196, 15.03 µM; in the assay on K. aerogenes NCTC 7427, 18.05 µM; in assay [2] it was 15.03 µM; in the assay on S. aureus ATCC 29213, 3.76 µM. For the same compound, the MIC with P. mirabilis NCTC 12442 stood at 18.05 µM; in the assay on B. cereus it was 72.2 µM.

Values taken from US20110144079A1, “ANTIMICROBIAL SYSTEM” (priority 2008, published 2011).
